Measurements: patent EP4660182A1, “NAV1.7- AND/OR NAV1.8-INHIBITING ARYL PYRIDINE COMPOUNDS, PROCESSES FOR THE PREPARATION THEREOF, COMPOSITIONS, USES, METHODS FOR TREATMENT USING SAME, AND KITS” (Eurofarma Laboratórios S.A., priority 2023, dated 2024)

How the values were obtained:
[1] = target: T1, human sodium channels Nav 1.7 (Homo sapiens, UniProt Q15858); experiment: Automated whole-cell voltage-clamp (ScreenPatch 384P) sodium current block, Nav 1.7; format: cell-based; settings: CHO cells stably expressing human Nav 1.7; inactivation step -40 mV 8 s, test step 0 mV (TP1A); eight concentrations; exposure at least five minutes; room temperature; read-out: Nav1.7 IC50
T1 construct: expressed in transfected cells
Experimental: (§1) Biological assays were performed on Chinese hamster ovary (CHO) cells that express human sodium channels Nav 1.8 or Nav 1.7 in a stable manner.
(§2) The experimental protocol voltage-clamp using the whole cell configuration was established on the automated ScreenPatch® 384P platform (SP384PE, Nanion Technologies, Livingston, NJ) and the results were recorded with a Nanion 384-well Patch Clamp chip (NPC) (Nanion Technologies, Livingston, NJ).
(§3) Formula I compounds were diluted in eight concentrations in the extracellular solution composed of saline solution, buffered with HEPES (mM): NaCl, 137; KCl, 4; CaCl2, 3,8; MgCl2, 1; HEPES, 10; Glucose, 10; pH 7.4. The […], 50; CsF, 90; MgCl2, 5; EGTA, 5; HEPES, 10; pH 7.2. The duration of exposure of each compound with cells expressing Nav 1.7 or Nav 1.8 was at least five minutes and the assays were performed at room temperature.
(§4) The measurements of the sodium currents of Nav 1.8 and Nav 1.7 were obtained using the voltage protocol described below.
(§5) A holding voltage of -100 mV was established followed by an inactivation voltage step at -40 mV for 8 seconds, followed by a step of -100 mV for 20 ms, followed by a 20 ms step for 10 mV for Nav 1.8 or 0 mV for Nav 1.7 (TP1A) before returning to the holding voltage of -100 mV.
(§6) The protocol was repeated at a frequency of 0.05 Hz and the amplitude of the current was quantified throughout the recording of the TP1A phase. The variation in the amplitude of the peak current was evaluated according to the formula described below, after exposing the cells expressing the channels to each concentration of the different compounds: % Block = (1−(ITP1A,molecule/ITP1A,basal)×100%, [formula] wherein ITP1A,basal and ITP1A,molecule represent the peaks of sodium current input into TP1A before exposure to the compound and in the presence of the compound, respectively.
(§7) Data were obtained by nonlinear regression (nonlinear least squares) with XLfit for Excel (Microsoft, Redmond, WA).
(§8) The compounds were tested in at least one assay to obtain the value of CI50. For compounds that were tested in two or more assays, the results are described as the means of the CI50 values.

[2] = target: T2, human sodium channels Nav 1.8 (Homo sapiens, UniProt Q9Y5Y9); experiment: Automated whole-cell voltage-clamp (ScreenPatch 384P) sodium current block, Nav 1.8; format: cell-based; settings: CHO cells stably expressing human Nav 1.8; inactivation step -40 mV 8 s, test step 10 mV (TP1A); eight concentrations; exposure at least five minutes; room temperature; read-out: Nav1.8 IC50
T2 construct: expressed in transfected cells
Experimental: as §1, §2, §3, §4, §5, §6, §7, §8

T1 sequence (Q15858 whole entry): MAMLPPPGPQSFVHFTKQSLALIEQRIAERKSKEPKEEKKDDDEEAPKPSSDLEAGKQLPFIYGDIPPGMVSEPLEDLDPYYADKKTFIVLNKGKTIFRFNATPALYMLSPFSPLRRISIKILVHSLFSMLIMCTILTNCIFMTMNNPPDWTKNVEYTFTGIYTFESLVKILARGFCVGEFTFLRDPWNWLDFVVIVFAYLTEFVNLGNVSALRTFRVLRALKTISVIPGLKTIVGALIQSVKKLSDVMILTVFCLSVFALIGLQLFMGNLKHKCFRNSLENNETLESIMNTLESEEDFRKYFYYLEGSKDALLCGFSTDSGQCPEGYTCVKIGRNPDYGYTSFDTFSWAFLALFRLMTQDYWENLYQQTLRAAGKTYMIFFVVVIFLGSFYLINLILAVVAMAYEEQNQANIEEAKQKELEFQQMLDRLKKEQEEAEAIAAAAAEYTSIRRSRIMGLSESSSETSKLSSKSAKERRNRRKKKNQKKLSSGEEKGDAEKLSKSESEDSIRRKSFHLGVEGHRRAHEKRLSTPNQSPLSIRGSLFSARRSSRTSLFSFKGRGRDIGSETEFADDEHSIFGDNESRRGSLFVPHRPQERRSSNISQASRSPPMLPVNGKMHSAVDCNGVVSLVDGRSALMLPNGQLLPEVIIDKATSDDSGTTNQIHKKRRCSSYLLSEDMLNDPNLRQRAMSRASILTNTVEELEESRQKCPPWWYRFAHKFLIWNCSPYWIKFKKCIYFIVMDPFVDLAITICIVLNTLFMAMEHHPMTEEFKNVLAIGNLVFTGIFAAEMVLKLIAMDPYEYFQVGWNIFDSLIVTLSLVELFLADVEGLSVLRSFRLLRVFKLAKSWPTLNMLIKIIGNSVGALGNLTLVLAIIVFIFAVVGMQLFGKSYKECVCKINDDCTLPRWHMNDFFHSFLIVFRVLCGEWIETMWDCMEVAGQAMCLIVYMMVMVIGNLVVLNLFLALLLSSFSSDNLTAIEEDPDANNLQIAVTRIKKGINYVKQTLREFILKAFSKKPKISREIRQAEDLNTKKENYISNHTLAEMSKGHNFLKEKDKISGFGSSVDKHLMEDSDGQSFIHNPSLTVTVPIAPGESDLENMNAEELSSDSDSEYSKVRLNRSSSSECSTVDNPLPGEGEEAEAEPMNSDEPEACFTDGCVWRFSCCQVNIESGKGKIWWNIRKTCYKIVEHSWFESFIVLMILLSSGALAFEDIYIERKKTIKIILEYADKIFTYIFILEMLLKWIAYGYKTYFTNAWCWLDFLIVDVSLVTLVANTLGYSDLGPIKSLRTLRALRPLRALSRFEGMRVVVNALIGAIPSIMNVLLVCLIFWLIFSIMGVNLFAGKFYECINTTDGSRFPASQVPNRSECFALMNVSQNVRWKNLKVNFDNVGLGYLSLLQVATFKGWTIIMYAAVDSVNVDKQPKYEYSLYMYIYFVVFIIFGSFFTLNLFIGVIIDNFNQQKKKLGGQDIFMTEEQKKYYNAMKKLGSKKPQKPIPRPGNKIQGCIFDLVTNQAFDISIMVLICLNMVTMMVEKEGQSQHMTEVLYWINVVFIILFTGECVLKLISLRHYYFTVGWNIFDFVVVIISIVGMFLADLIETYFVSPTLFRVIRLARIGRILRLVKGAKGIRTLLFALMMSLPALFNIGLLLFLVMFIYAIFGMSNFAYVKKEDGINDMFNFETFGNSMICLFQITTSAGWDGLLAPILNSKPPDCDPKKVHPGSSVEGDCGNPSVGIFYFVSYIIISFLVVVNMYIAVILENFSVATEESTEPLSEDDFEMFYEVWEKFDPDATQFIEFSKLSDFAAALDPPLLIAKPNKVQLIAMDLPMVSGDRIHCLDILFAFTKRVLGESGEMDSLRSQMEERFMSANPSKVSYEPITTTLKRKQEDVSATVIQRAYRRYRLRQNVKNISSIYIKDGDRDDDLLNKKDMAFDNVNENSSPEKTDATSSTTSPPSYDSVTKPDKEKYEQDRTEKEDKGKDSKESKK
T2 sequence (Q9Y5Y9 whole entry): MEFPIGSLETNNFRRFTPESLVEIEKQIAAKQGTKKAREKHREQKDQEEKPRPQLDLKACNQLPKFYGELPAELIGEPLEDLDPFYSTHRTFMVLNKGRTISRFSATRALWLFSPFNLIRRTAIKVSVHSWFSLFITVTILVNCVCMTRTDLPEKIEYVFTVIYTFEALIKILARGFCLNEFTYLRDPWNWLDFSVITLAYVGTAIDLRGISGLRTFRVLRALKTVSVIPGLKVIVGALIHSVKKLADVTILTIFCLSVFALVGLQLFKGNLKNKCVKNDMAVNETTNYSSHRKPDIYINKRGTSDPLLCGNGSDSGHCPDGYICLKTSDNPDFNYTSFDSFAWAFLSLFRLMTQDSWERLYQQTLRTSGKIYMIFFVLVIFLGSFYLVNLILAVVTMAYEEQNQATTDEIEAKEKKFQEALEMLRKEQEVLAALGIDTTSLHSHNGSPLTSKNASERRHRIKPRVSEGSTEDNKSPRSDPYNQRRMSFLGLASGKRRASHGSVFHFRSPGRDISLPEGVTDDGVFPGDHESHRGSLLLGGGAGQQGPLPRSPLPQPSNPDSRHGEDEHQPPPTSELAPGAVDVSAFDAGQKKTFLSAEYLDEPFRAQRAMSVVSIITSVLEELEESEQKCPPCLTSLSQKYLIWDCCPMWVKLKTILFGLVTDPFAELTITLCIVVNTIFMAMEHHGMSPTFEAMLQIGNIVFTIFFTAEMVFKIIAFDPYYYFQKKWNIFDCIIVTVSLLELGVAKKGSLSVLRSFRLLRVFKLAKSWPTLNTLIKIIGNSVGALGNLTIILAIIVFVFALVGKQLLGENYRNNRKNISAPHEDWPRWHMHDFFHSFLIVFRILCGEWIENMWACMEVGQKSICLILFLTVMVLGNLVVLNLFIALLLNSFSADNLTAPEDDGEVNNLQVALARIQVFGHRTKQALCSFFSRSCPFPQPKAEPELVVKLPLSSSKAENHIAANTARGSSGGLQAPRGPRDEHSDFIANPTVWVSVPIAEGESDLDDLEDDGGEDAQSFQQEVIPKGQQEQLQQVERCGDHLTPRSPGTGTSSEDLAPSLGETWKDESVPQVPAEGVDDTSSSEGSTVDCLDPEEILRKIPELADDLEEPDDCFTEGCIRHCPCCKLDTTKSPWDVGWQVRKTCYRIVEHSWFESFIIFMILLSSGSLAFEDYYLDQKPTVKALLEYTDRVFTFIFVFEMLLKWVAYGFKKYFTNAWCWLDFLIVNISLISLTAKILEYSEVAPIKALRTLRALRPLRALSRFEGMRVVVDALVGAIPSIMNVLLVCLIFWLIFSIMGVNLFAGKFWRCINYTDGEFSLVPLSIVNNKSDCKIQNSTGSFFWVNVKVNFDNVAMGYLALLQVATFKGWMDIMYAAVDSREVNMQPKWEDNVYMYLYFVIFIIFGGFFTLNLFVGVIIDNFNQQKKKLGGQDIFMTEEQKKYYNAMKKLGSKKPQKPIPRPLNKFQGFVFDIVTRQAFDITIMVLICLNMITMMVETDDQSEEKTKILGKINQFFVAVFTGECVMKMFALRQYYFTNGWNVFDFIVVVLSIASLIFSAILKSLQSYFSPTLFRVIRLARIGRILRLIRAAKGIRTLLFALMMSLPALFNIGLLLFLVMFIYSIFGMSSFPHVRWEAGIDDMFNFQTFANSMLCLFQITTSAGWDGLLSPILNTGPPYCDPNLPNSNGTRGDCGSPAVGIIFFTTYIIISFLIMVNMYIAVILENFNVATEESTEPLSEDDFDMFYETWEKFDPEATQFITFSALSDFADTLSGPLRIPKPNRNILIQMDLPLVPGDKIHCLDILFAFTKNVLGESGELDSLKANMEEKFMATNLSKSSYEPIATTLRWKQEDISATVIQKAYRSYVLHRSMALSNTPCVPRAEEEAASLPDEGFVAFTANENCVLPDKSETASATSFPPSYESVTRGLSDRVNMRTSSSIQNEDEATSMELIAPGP

| IC50 [1] | IC50 [2] | SMILES |
| --- | --- | --- |
| 500 to 1000 nM | < 500 nM | CCOc1ccc(-c2cncc(C(=O)N/N=C/c3ccc(F)c(OC)c3)n2)cn1 [Compound 2, (E)-6-(6-ethoxypyridine-3-yl)-N'-(4-fluoro-3-methoxybenzylidene)pyrazine-2-carbohydrazide] |
| 500 to 1000 nM | < 500 nM | CCOc1ccc(-c2cncc(C(=O)N/N=C/c3cc(OC)c(F)cc3F)n2)cn1 [Compound 3, (E)-N'-(2,4-difluoro-5-methoxybenzylidene)-6-(6-ethoxypyridine-3-yl)pyrazine-2-carbohydrazide] |
| > 1000 nM | < 500 nM | CCOc1ccc(F)c(/C=N/NC(=O)c2cncc(-c3ccc(OCC)nc3)n2)c1 [Compound 4, (E)-N'-(5-ethoxy-2-fluorobenzylidene)-6-(6-ethoxypyridine-3-yl)pyrazine-2-carbohydrazide] |
| < 500 nM | < 500 nM | CCOc1ccc(-c2cncc(C(=O)N/N=C/c3cc(OC(C)C)ccc3F)n2)cn1 [Compound 5, (E)-6-(6-ethoxypyridine-3-yl)-N'-(2-fluoro-5-isopropoxybenzylidene)pyrazine-2-carbohydrazide] |
| > 1000 nM | < 500 nM | CCOc1ccc(-c2cncc(C(=O)N/N=C/c3cc(OC4CC4)ccc3F)n2)cn1 [Compound 6, (E)-N'-(5-cyclopropoxy-2-fluorobenzylidene)-6-(6-ethoxypyridine-3-yl)pyrazine-2-carbohydrazide] |
| > 1000 nM | < 500 nM | CCOc1ccc(-c2cncc(C(=O)N/N=C/c3cc(OC)cnc3F)n2)cn1 [Compound 7, (E)-6-(6-ethoxypyridine-3-yl)-N'-((2-fluoro-5-methoxypyridine-3-yl)methylene)pyrazine-2-carbohydrazide] |
| > 1000 nM | 500 to 1000 nM | CCOc1ccc(-c2cncc(C(=O)N/N=C/c3cc(OC)ncc3F)n2)cn1 [Compound 8, (E)-6-(6-ethoxypyridine-3-yl)-N'-((5-fluoro-2-methoxypyridine-4-yl)methylene)pyrazine-2-carbohydrazide] |
| > 1000 nM | < 500 nM | CCOc1ccc(-c2cncc(C(=O)N/N=C/c3cc(OC)ccn3)n2)cn1 [Compound 9, (E)-6-(6-ethoxypyridine-3-yl)-N'-((4-methoxypyridine-2-yl)methylene)pyrazine-2-carbohydrazide] |
| > 1000 nM | > 1000 nM | CCOc1ccc(-c2cncc(C(=O)N/N=C/c3cc(C(=O)O)ccc3F)n2)cn1 [Compound 10, (E)-3-(2-(6-(6-(6-ethoxypyridine-3-yl)pyrazine-2-carbonyl)hydrazinylidene)methyl)-4-fluorobenzoic acid] |
| > 1000 nM | < 500 nM | CCOc1ccc(-c2cncc(C(=O)N/N=C/c3cc(N(C)C)ccc3F)n2)cn1 [Compound 11, (E)-N'-(5-(dimethylamino)-2-fluorobenzylidene)-6-(6-ethoxypyridine-3-yl)pyrazine-2-carbohydrazide] |
| > 1000 nM | > 1000 nM | CCOc1ccc(-c2cncc(C(=O)N/N=C/c3cc(CN)ccc3F)n2)cn1 [Compound 13, (E)-N'-(5-(aminomethyl)-2-fluorobenzylidene)-6-(6-ethoxypyridine-3-yl)pyrazine-2-carbohydrazide] |
| > 1000 nM | < 500 nM | CCOc1ccc(-c2cncc(C(=O)N/N=C/c3nc(OC)ccc3F)n2)cn1 [Compound 15, (E)-6-(6-ethoxypyridine-3-yl)-N'-((3-fluoro-6-methoxypyridine-2-yl)methylene)pyrazine-2-carbohydrazide] |
| 500 to 1000 nM | < 500 nM | CCOc1ccc(-c2cncc(C(=O)N/N=C/c3cc(OC)ccc3C)n2)cn1 [Compound 17, (E)-6-(6-ethoxypyridine-3-yl)-N'-(5-methoxy-2-methylbenzylidene)pyrazine-2-carbohydrazide] |
| > 1000 nM | < 500 nM | CCOc1ccc(-c2cncc(C(=O)N/N=C/c3cncc(OC)c3)n2)cn1 [Compound 18, (E)-6-(6-ethoxypyridine-3-yl)-N'-((5-methoxypyridine-3-yl)methylene)pyrazine-2-carbohydrazide] |
| > 1000 nM | 500 to 1000 nM | CCOc1ccc(-c2cncc(C(=O)N/N=C/c3cc(OC)ccc3O)n2)cn1 [Compound 19, (E)-6-(6-ethoxypyridine-3-yl)-N'-(2-hydroxy-5-methoxybenzylidene)pyrazine-2-carbohydrazide] |
| > 1000 nM | > 1000 nM | CCOc1ccc(-c2cncc(C(=O)N/N=C/c3cc(OC4CNC4)ccc3F)n2)cn1 [Compound 20, (E)-N'-(5-(azetidine-3-yloxy)-2-fluorobenzylidene)-6-(6-ethoxypyridine-3-yl)pyrazine-2-carbohydrazide] |
| > 1000 nM | 500 to 1000 nM | CCOc1ccc(-c2cncc(C(=O)N/N=C/c3cccc(C(C)O)c3)n2)cn1 (centres unmarked) [Compound 22, (E)-6-(6-ethoxypyridine-3-yl)-N'-(3-(1-hydroxyethyl)benzylidene)pyrazine-2-carbohydrazide] |
| > 1000 nM | < 500 nM | CCOc1ccc(-c2cncc(C(=O)N/N=C/c3cc(C(C)O)ccc3F)n2)cn1 (centres unmarked) [Compound 23, (E)-6-(6-ethoxypyridine-3-yl)-N'-(2-fluoro-5-(1-hydroxyethyl)benzylidene)pyrazine-2-carbohydrazide] |
| > 1000 nM | > 1000 nM | CCOc1ccc(-c2cncc(C(=O)N/N=C/c3cncc(C(C)O)c3)n2)cn1 (centres unmarked) [Compound 24, (E)-6-(6-ethoxypyridine-3-yl)-N'-((5-(1-hydroxyethyl)pyridine-3-yl)methylene)pyrazine-2-carbohydrazide] |
| > 1000 nM | 500 to 1000 nM | CCOc1ccc(-c2cncc(C(=O)N/N=C/c3cc(C(C)O)cnc3F)n2)cn1 (centres unmarked) [Compound 25, (E)-6-(6-ethoxypyridine-3-yl)-N'-((2-fluoro-5-(1-hydroxyethyl)pyridine-3-yl)methylene) pyrazine-2-carbohydrazide] |
| > 1000 nM | < 500 nM | CCOc1ccc(-c2cncc(C(=O)N/N=C/c3cc(OC)cnc3C)n2)cn1 [Compound 27, (E)-6-(6-ethoxypyridine-3-yl)-N'-((5-methoxy-2-methylpyridine-3-yl)methylene)pyrazine-2-carbohydrazide] |
| > 1000 nM | 500 to 1000 nM | CCOc1ccc(-c2cncc(C(=O)N/N=C/c3cc(O)cnc3F)n2)cn1 [Compound 28, (E)-6-(6-ethoxypyridine-3-yl)-N'-((2-fluoro-5-hydroxypyridine-3-yl)methylene)pyrazine-2-carbohydrazide] |
| > 1000 nM | > 1000 nM | CCOc1ccc(-c2cncc(C(=O)N/N=C/c3cc(C(C)O)ccn3)n2)cn1 (centres unmarked) [Compound 31, (E)-6-(6-ethoxypyridine-3-yl)-N'-((4-(1-hydroxyethyl)pyridine-2-yl)methylene)pyrazine-2-carbohydrazide] |

| SMILES | IC50 [1] | IC50 [2] |
| --- | --- | --- |
| CCOc1ccc(-c2cncc(C(=O)N/N=C/c3cc(S(N)(=O)=O)ccc3F)n2)cn1 [Compound 14, (E)-3-((2-(6-(6-ethoxypyridine-3-yl)pyrazine-2-carbonyl)hydrazinylidene)methyl)-4-fluorobenzenesulfonamide] | > 1000 nM | > 1000 nM |
| CCOc1ccc(-c2cncc(C(=O)N/N=C/c3cc(OC4CCC4)ccc3F)n2)cn1 [Compound 21, (E)-N'-(5-cyclobutoxy-2-fluorobenzylidene)-6-(6-ethoxypyridine-3-yl)pyrazine-2-carbohydrazide] | 500 to 1000 nM | < 500 nM |
